{"source": "patent EP3070175A1", "about": "“TEST FOR DETERMINING SUSCEPTIBILITY OR RESISTANCE TO POLYMYXINS IN ENTEROBACTERIACEAE” (Université de Fribourg, priority 2015, dated 2016)", "tested_on": "enterobacterial strains", "test": "Polymyxin test: colorimetric detection of growth with polymyxin B as selective antibiotic", "format": "cell-based, Enterobacteriaceae", "settings": "polymyxin B instead of colistin as selective antibiotic; all tested strains", "method": "Each inoculum was prepared by mixing 1 öse (10 µl) of a fresh culture of the tested bacteria in 5 ml of sterile NaCl 0.85% (at a density of 3 Mac Farland, i.e. about 10^9 CFU/ml).\n250 ml of reactive medium was prepared by mixing the compounds hereafter: • a broth powder of a non selective growth medium for bacteria, the Cation-Adjusted Mueller-Hinton broth (MHB-CA) : 6.25 g • a colour indicator, the phenol red : 0.0125 g • sterile distilled water 225 ml • sterile D (+)-glucose (10 %) anhydrous (sterilization by filtration) : 25 ml\nThe pH of the final reactive medium was adjusted to 6.6 and 6.7 with HCl 1M.\nColistin or polymyxin B was added or not at the concentration of 5 mg/L in the reactive medium. Standard colistin sulphate and polymyxin B were from Sigma Aldrich (Saint-Louis, France). Those antibiotic molecule powders were kept at 4°C before their use, whereas polymyxin dilutions were kept at -20°C.\nFor each strain, two wells of a plastic sterile plate with 96 shaped wells were inoculated in parallel with and without polymyxin (colistin sulphate or polymyxin B) in order to compare their colour change.\nPlastic sterile plates were from Sarstedt (Nümbrecht, Germany). The tray may be prepared as follows : • 1. […]\nThe results of the tests were recorded at 10 min (checking for no spontaneous colour change in the well) and then every hour for a maximum of 4 hours by visual inspection. […]"}
{"substance": "polymyxin B", "values": [{"measurement": "Results of the method of the invention compared with colistin", "value": "Identical results"}]}
